In one test the test system is Polio 2. Kind of test: microbe, parasite or virus in culture. In kind it is cell-based, poliovirus. The conditions noted are these: Enterovirus C, HeLa, read-out: Polio 2 MIC.
In test [1] the test system is human rhinovirus (HRV) serotypes. Kind of test: microbe, parasite or virus in culture. The class given is cell-based. The following applies: for MIC50: read-out: Rhinovirus MIC50; for IC (MIC80 of serotype panel): read-out: Rhinovirus MIC80.

36 compounds from US4843087A (priority 1986, dated 1989) can be followed below.

Converted amounts (≈) assume the structure as drawn.

Take `Cc1cc(CCCCCCOc2ccc(C3=NCCO3)cc2)on1` [14(b), 5-{6-[4-(4,5-Dihydro-2-oxazolyl)phenoxy]hexyl}-3-methylisoxazole]: the MIC with Polio 2 worked out at 0.017 µg/mL (≈ 0.0518 µM). In test [1], the MIC50 stood at 0.8 µg/mL (≈ 2.44 µM) and the IC (MIC80 of serotype panel) turned out to be 25.5 µg/mL.
With `Cc1cc(CCCCCCCOc2ccc(C3=NCCO3)cc2F)on1` [19(b), 5-{7-[4-(4,5-Dihydro-2-oxazolyl)-2-fluorophenoxy]heptyl}-3-methylisoxazole], the MIC in the test on Polio 2 is 0.3 µg/mL (≈ 0.832 µM). Moreover, in test [1], the MIC50 turned out to be 0.8 µg/mL (≈ 2.22 µM) and the IC (MIC80 of serotype panel) was found to be 99 µg/mL.
As for `Cc1cc(CCCCOc2ccc(C3=NCCO3)cc2)on1` [21 (b), 5-{4-[4-(4,5-Dihydro-2-oxazolyl)phenoxy]butyl}-3-methylisoxazole], the MIC with Polio 2 is 0.5 µg/mL (≈ 1.66 µM).
Turning to `Cc1noc(CCCCCCCOc2ccc(C3=NCCO3)cc2)c1CO` [29(b), 5-{7-[4-(4,5-Dihydro-2-oxazolyl)phenoxy]heptyl}-3-methyl-4-isoxazolemethanol], the MIC in the test on Polio 2 was 0.02 µg/mL (≈ 0.0537 µM). In test [1], the MIC50 was found to be 1.25 µg/mL (≈ 3.34 µM) and the IC (MIC80 of serotype panel) worked out at 1.7 µg/mL.
On the same counts, the results for `Cc1cc(CCCCCCCOc2ccc(C3=NCCO3)cc2C)on1` [31(b), 5-{7-[4-(4,5-Dihydro-2-oxazolyl)-2-methylphenoxy]heptyl}-3-methylisoxazole] are 0.36 µg/mL (≈ 1.01 µM), 0.15 µg/mL (≈ 0.421 µM) and 0.56 µg/mL.
On to `Cc1cc(CCCCCCCOc2ccc(C3=NCC(C)O3)cc2)on1` (centres unmarked) [34(b), 5-{7-[4-(4,5-Dihydro-5-methyl-2-oxazolyl)phenoxy]heptyl}-3-methylisoxazole], for which the MIC in the test with Polio 2 is 0.49 µg/mL (≈ 1.37 µM). In test [1], the MIC50 came out at 0.2 µg/mL (≈ 0.561 µM) and the IC (MIC80 of serotype panel) stood at 26.5 µg/mL.
The corresponding values for `Cc1cc(CCCCCCCOc2ccc(C3=NCCO3)c(C)c2)on1` [38(b), 5-{7-[4-(4,5-Dihydro-2-oxazolyl)-3-methylphenoxy]heptyl}-3-methylisoxazole] are 0.3 µg/mL (≈ 0.842 µM), 0.69 µg/mL (≈ 1.94 µM) and 0.9 µg/mL.
Turning to `COc1cc(C2=NCCO2)ccc1OCCCCCCCc1cc(C)no1` [41(b), 5-{7-[4-(4,5-Dihydro-2-oxazolyl)-2-methoxyphenoxy]heptyl}-3-methylisoxazole], the MIC with Polio 2 turned out to be 1 µg/mL (≈ 2.68 µM). Besides, in test [1], the MIC50 was found to be 0.55 µg/mL (≈ 1.48 µM) and the IC (MIC80 of serotype panel) came out at 4 µg/mL.
For the compound `Cc1cc(CCCCCCCOc2ccc(-c3ncco3)cc2)on1` [87(b), 3-Methyl-5-{7-[4-(2-oxazolyl)phenoxy]heptyl}isoxazole], in the test on Polio 2, the MIC was determined as 0.04 µg/mL (≈ 0.118 µM).
As to `Cc1cc(CCCCCOc2ccc(-c3nc(C)c(C)o3)cc2)on1` [89(d), 5-{5-[4-(4,5-Dimethyl-2-oxazolyl)phenoxy]pentyl}-3-methylisoxazole], in the test with Polio 2, the MIC was determined as 0.16 µg/mL (≈ 0.47 µM). In addition, in test [1], the MIC50 was 0.19 µg/mL (≈ 0.558 µM) and the IC (MIC80 of serotype panel) was determined as 0.77 µg/mL.
Consider `Cc1cc(CCCCCOc2ccc(-c3ncc(C)o3)cc2)on1` [93(f), 3-Methyl-5-{5-[4-(5-methyl-2-oxazolyl)phenoxy]pentyl}-isoxazole], for which, in the test with Polio 2, the MIC turned out to be 0.09 µg/mL (≈ 0.276 µM). In test [1], the MIC50 stood at 0.09 µg/mL (≈ 0.276 µM) and the IC (MIC80 of serotype panel) was 1.3 µg/mL.
For `Cc1cc(CCCCCCCOc2ccc(C3=NCCCO3)cc2)on1` [94(c), 5,6-Dihydro-2-{4-[7-(3-methyl-5-isoxazolyl)heptyloxy]phenyl}-4H-1,3-oxazine], the MIC in the test on Polio 2 amounted to 0.8 µg/mL (≈ 2.24 µM). Moreover, in test [1], the MIC50 was found to be 1.06 µg/mL (≈ 2.97 µM) and the IC (MIC80 of serotype panel) stood at 99 µg/mL.
For the compound `Cc1cc(CCCCCOc2c(C)cc(-c3cnco3)cc2C)on1` [97(b), 5-{5-[2,6-Dimethyl-4-(5-oxazolyl)phenoxy]pentyl}-3-methylisoxazole], the MIC in the test with Polio 2 was 5.4 µg/mL (≈ 15.9 µM). Moreover, in test [1], the MIC50 was 0.135 µg/mL (≈ 0.397 µM) and the IC (MIC80 of serotype panel) stood at 0.76 µg/mL.
Regarding `Cc1cc(CCC2CCC(COc3ccc(C4=NCCO4)cc3)CC2)on1` (centres unmarked) [101 (b), 5-{2-[4-[[4-(4,5-Dihydro-2-oxazolyl)phenoxy]methyl]cyclohexyl]ethyl}-3-methylisoxazole], in the test with Polio 2, the MIC is 0.65 µg/mL (≈ 1.76 µM).
As for `Cc1cc(CCCCCSc2ccc(C3=NCCO3)cc2)on1` [103(c), 5-{5-[[4-(4,5-Dihydro-2-oxazolyl)phenyl]thio]pentyl}-3-methylisoxazole], the MIC in the test with Polio 2 was determined as 0.37 µg/mL (≈ 1.12 µM). Moreover, in test [1], the MIC50 is 0.57 µg/mL (≈ 1.72 µM) and the IC (MIC80 of serotype panel) is 27.1 µg/mL.
Turning to `Cc1cc(CCCCCOc2c(Cl)cc(C(=O)NCCCl)cc2Br)on1` [152(c), 3-Bromo-5-chloro-N-(2-chloroethyl)-4-{[5-(3-methyl-5-isoxazolyl)pentyl]oxy}benzamide], in the test with Polio 2, the MIC was determined as 2.1 µg/mL (≈ 4.52 µM). In test [1], the MIC50 came out at 0.14 µg/mL (≈ 0.302 µM) and the IC (MIC80 of serotype panel) stood at 0.6 µg/mL.
Consider `Cc1cc(CCCCCOc2c(Cl)cc(C3=NCCO3)cc2Br)on1` [152(d), 5-{5-[2-Bromo-6-chloro-4-(4,5-dihydro-2-oxazolyl)phenoxy]pentyl}-3-methylisoxazole], for which the MIC with Polio 2 stood at 0.97 µg/mL (≈ 2.27 µM). Also, in test [1], the MIC50 came out at 0.095 µg/mL (≈ 0.222 µM) and the IC (MIC80 of serotype panel) stood at 0.23 µg/mL.
As for `Cc1cc(CCCCCOc2c(Cl)cc(C(=O)NCCCl)cc2[N+](=O)[O-])on1` [153(c), 3-Chloro-N-(2-chloroethyl)-4-{[5-(3-methyl-5-isoxazolyl)pentyl]oxy}-5-nitrobenzamide], in the test with Polio 2, the MIC amounted to 0.86 µg/mL (≈ 2 µM). In addition, in test [1], the MIC50 turned out to be 0.08 µg/mL (≈ 0.186 µM) and the IC (MIC80 of serotype panel) was 0.23 µg/mL.
Take `Cc1cc(CCCCCOc2c(Cl)cc(C3=NCCO3)cc2[N+](=O)[O-])on1` [153(d), 5-{5-[2-Chloro-4-(4,5-dihydro-2-oxazolyl)-6-nitrophenoxy]pentyl}-3-methylisoxazole]: the MIC in the test on Polio 2 turned out to be 0.4 µg/mL (≈ 1.02 µM). In test [1], the MIC50 was found to be 0.09 µg/mL (≈ 0.229 µM) and the IC (MIC80 of serotype panel) was 0.18 µg/mL.
Regarding `Cc1cc(CCCCCOc2c(C)cc(C(=O)NCCCl)cc2Cl)on1` [154(b), 3-Chloro-N-(2-chloroethyl)-5-methyl-4 -{[5-(3-methyl-5-isoxazolyl)pentyl]oxy}benzamide], in the test with Polio 2, the MIC worked out at 1.13 µg/mL (≈ 2.83 µM). For the same compound, in test [1], the MIC50 came to 0.17 µg/mL (≈ 0.426 µM) and the IC (MIC80 of serotype panel) came to 0.63 µg/mL.
As to `Cc1cc(CCCCCOc2c(C)cc(C3=NCCO3)cc2Cl)on1` [154(c), 5-{5-[2-Chloro-4-(4,5-dihydro-2-oxazolyl)-6-methylphenoxy]pentyl}-3-methylisoxazole], in the test with Polio 2, the MIC came to 0.8 µg/mL (≈ 2.2 µM). Besides, in test [1], the MIC50 is 0.22 µg/mL (≈ 0.606 µM) and the IC (MIC80 of serotype panel) came out at 0.33 µg/mL.
Take `CCc1cc(C(=O)NCCCl)cc(C)c1OCCCCCc1cc(C)no1` [157(c), N-(2-Chloroethyl)-3-ethyl-5-methyl-4-{[5-(3-methyl-5-isoxazolyl)pentyl]oxy}benzamide]: the MIC in the test on Polio 2 was found to be 2.1 µg/mL (≈ 5.34 µM). Moreover, in test [1], the MIC50 was 0.49 µg/mL (≈ 1.25 µM) and the IC (MIC80 of serotype panel) came to 1.2 µg/mL.
Consider `CCc1cc(C2=NCCO2)cc(C)c1OCCCCCc1cc(C)no1` [157(d), 5-{5-[4-(4,5-Dihydro-2-oxazolyl)-2-ethyl-6-methylphenoxy]pentyl}-3-methylisoxazole], for which the MIC in the test with Polio 2 was determined as 3.3 µg/mL (≈ 9.26 µM). Moreover, in test [1], the MIC50 turned out to be 1.25 µg/mL (≈ 3.51 µM) and the IC (MIC80 of serotype panel) was determined as 2.5 µg/mL.
Consider `OCc1cc(CCCCCCCOc2ccc(C3=NCCO3)cc2)on1` [Example 11, 5-{7-[4-(4,5-Dihydro-2-oxazolyl)phenoxy]heptyl}-3-isoxazolemethanol], for which the MIC in the test with Polio 2 turned out to be 0.02 µg/mL (≈ 0.0558 µM).
On to `Cc1cc(C(O)CCCCCCOc2ccc(C3=NCCO3)cc2)on1` (stereo not drawn) [Example 12, α-{6-[4-(4,5-dihydro-2-oxazolyl)phenoxy]hexyl}-3-methyl-5-isoxazolemethanol], for which, in the test with Polio 2, the MIC turned out to be 0.08 µg/mL (≈ 0.223 µM).
On the same count and under the same terms, under `Cc1cc(CCCCCCCCOc2ccc(C3=NCCO3)cc2Cl)on1` [Example 22, 5-{8-[2-Chloro-4-(4,5-dihydro-2-oxazolyl)phenoxy]octyl}-3-methylisoxazole] stands 1.1 µg/mL (≈ 2.81 µM); under `CC(=O)OCc1cc(CCCCCCCOc2ccc(C3=NCCO3)cc2)on1` [Example 28, 5-{7-[4-(4,5-Dihydro-2-oxazolyl)phenoxy]heptyl}-3-isoxazolemethanol acetate], 0.007 µg/mL; under `Cc1cc(CCCCCOc2cccc(C3=NCCO3)c2)on1` [Example 30, 5-{5-[3-(4,5-Dihydro-2-oxazolyl)phenoxy]pentyl}-3-methylisoxazole], greater than 0.2 µg/mL.
Consider `Cc1cc(CCCCCOc2ccc(C3=NCCO3)cc2Cl)no1` [Example 37, 3-{5-[2-Chloro-4-(4,5-dihydro-2-oxazolyl)phenoxy]pentyl}-5-methylisoxazole], for which the MIC in the test with Polio 2 was determined as 0.4 µg/mL (≈ 1.15 µM).
For `Cc1cc(CCCCCCCOc2ccc(C3=NCCO3)cc2C=O)on1` [Example 69, 5-{7-[4-(4,5-Dihydro-2-oxazolyl)-2-formylphenoxy]heptyl}-3-methylisoxazole], in the test with Polio 2, the MIC was 0.44 µg/mL (≈ 1.19 µM).
On the same count and under the same terms, to `Cc1cc(CCCOCOCCOc2ccc(C3=NCCO3)cc2)on1` [Example 73, 5-{3-[[2-[4-(4,5-Dihydro-2-oxazolyl)phenoxy]ethoxy]methoxy]propyl}-3-methylisoxazole] belongs 0.46 µg/mL (≈ 1.28 µM); to `Cc1cc(CCCCCCCOc2ccc(C3=NC[C@@H](C)O3)cc2)on1` [Example 123, (R)-5-{7-[4-(4,5-Dihydro-5-methyl-2-oxazolyl)phenoxy]heptyl}-3-methylisoxazole], 1.01 µg/mL (≈ 2.83 µM).
For `Cc1cc(CCCCCOc2c(Cl)cc(C3=NC(CO)CO3)cc2Cl)on1` (centres unmarked) [Example 138, 5-{5-[2,6-Dichloro-4-(4,5-dihydro-4-hydroxymethyl-2-oxazolyl)phenoxy]pentyl}-3-methylisoxazole], in test [1], the MIC50 is 0.2 µg/mL (≈ 0.484 µM) and the IC (MIC80 of serotype panel) stood at 1.2 µg/mL.
On the same counts, the results for `C=CCC1COC(c2ccc(OCCCCCCCc3cc(C)no3)cc2)=N1` (centres unmarked) [Example 139, 5-{7-[4-(4,5-Dihydro-4-(2-propenyl)-2-oxazolyl)phenoxy]heptyl}-3-methylisoxazole] are 0.795 µg/mL (≈ 2.08 µM) and 25.9 µg/mL.
As for `Cc1cc(CCCCCCCOc2ccc(C3=NC(CCl)CO3)cc2)on1` (centres unmarked) [Example 140, 5-{7-[4-(4-Chloromethyl-4,5-dihydro-2-oxazolyl)phenoxy]heptyl}-3-methylisoxazole], in test [1], the MIC50 was 0.49 µg/mL (≈ 1.25 µM) and the IC (MIC80 of serotype panel) worked out at 26.9 µg/mL.
On the same counts, the results for `Cc1cc(CCCCCOc2c(C)cc(C3=NCCO3)c(Cl)c2C)on1` [Example 160, 5-{5-[3-Chloro-4-(4,5-dihydro-2-oxazolyl)-2,6-dimethylphenoxy]pentyl}-3-methylisoxazole] are 0.24 µg/mL (≈ 0.637 µM) and 0.4 µg/mL.
